Data: US7626027B2, “Substituted 1H-pyrrolo[2,3-c]pyridine-2-carboxamides and related analogs as inhibitors of casein kinase Iε” (Aventis Pharmaceuticals Inc, priority 2003, dated 2009)
Like-named read-outs stand apart in the source and are kept apart here.

What was measured:
[1] = system: Mper1-luc Rat-1 fibroblasts (P2C4); test: Cellular Circadian Assay (Mper1-luc reporter period lengthening); type: cell-based; conditions: effective micromolar concentration that induced a 1 hour lengthening of circadian period
From the text: The assay consists of Rat-1 fibroblasts stably expressing an Mper1-luc construct, thus enabling the determination of the rhythmic activation of the Mper1 promoter in living cells by repeatedly estimating luciferase activity by monitoring light-output over several days. The repeated measure format of the assay permits accurate and reproducible assessment of the concentration-dependent effects of CKIε inhibitors on circadian rhythm and provides the nexus for relating CKIε inhibition to circadian period alteration.
Cellular Circadian Assay Experimental Procedures
Stable transfection: Rat-1 fibroblast cultures at 30-50% confluence were co-transfected with vectors containing the Zeocin resistance selectable marker for stable transfection and an mPer-1 promoter-driven luciferase reporter gene. After 24-48 hours, cultures were split onto 96 well plates and maintained in growth media supplemented with 50-100 μg/mL Zeocin (Invitrogen #45-0430) for 10-14 days. Zeocin-resistant stable transfectants were assessed for reporter expression by supplementing growth media with 100 μM luciferin (Promega #E1603) and assaying luciferase activity on a TopCount scintillation counter (Packard Model #C384V00). […] Mper1-luc Rat-1 fibroblasts clone P2C4 was selected for compound testing. […] After synchronization, cultures were rinsed with 100 μL EMEM (Celigro #10-010-CV) for 10 minutes at room temperature. […] Compounds tested for circadian effects were added to CO2-independent media in 0.3% DMSO (final concentration). […] In Vivo luciferase activity was estimated by measuring relative light output on a TopCount scintillation counter (Packard Model #C384V00). Plates were transferred from incubator to reader using an ORCA robotic arm (Beckman Instruments) and SAMI-NT automated scheduling software (Version 3.3; SAGIAN/Beckman Instruments). Data Analysis: Microsoft Excel and XLfit (Version 2.0.9; IDBS) were used to import, manipulate and graph data. Period analysis was performed either by determining the interval between relative light output minima over several days or by Fourier Transform. […] Potency is reported as EC≡t+1h, which is presented as the effective micromolar concentration that induced a 1 hour lengthening of period. The data was analyzed by fitting a hyperbolic curve to the data expressed as period change (y-axis) versus the concentration of test compound (x-axis) in XLfit and the EC[…]t+1h was interpolated from this curve.

[2] = molecular target: T1, casein kinase 1ε (Homo sapiens, UniProt P49674); test: Casein Kinase Epsilon 33P-ATP Filter Plate Assay; type: biochemical
T1 construct: made in house
T1 sequence (P49674 whole entry): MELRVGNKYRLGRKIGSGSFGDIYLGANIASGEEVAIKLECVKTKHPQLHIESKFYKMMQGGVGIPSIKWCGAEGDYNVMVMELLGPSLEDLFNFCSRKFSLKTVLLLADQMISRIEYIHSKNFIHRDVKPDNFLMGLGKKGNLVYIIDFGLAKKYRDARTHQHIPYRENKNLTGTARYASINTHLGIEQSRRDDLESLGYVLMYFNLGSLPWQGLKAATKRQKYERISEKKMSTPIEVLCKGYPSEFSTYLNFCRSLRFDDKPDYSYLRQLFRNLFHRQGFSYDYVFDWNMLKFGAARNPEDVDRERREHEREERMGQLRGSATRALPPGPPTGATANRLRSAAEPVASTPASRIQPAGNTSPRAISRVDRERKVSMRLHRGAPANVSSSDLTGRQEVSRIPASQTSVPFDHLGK
From the text: Casein Kinase Epsilon ^33P-ATP Filter Plate Assay for Screening CK1 Inhibitors Purpose: This assay measures the effect of compounds to inhibit the phosphorylation of the substrate casein by the enzyme casein kinase 1ε using an in vitro ^33P-ATP filtration assay.
Equipment: • Beckman Biomek 2000 Liquid Handling Robot • Beckman Multimek 96 Automated 96 Channel Pipettor • Millipore Vacuum Manifold Basic Kit # MAVM0960R • Titertek Multidrop Liquid Dispenser • Packard TopCount NXT Liquid Scintillation Counter
Enzyme: • Casein Kinase 1ε final concentration 0.58 mg/ml obtained from fermentation and purification processes performed by Aventis Pharmaceuticals Inc., France. The above are stored as 100 μL aliquots at minus 80° C.
Compounds: • Compounds for testing are supplied as frozen 10 mM compound stock dissolved in 100% DMSO. Assay Conditions:
Final total assay volume per well is equal to 50 μL made up as follows: • 5 μL of diluted compound stock ([…], 0.1, 0.01 or 0.001 μM), • 5 μL of dephosphorylated casein final concentration 0.2 μg/μL, • 20 μL of CK1ε final concentration 3 ng/μL, and • 20 μL of γ-^33P-ATP final concentration 0.02 μCi/μL mixed with cold ATP (10 μM final). Methodology: • 1. 500 mL of fresh assay buffer is made: 50 mM Tris pH 7.5, 10 mM MgCl2, 2 mM DTT and 1 mM EGTA • 2. Compounds to be evaluated are obtained as 10 μL of 10 mM stock dissolved in 100% DMSO. Using a Biomek 2000 liquid handling robot, serial dilutions are made to yield 10, 1, 0.1, 0.01 and 0.001 μM final compound dilutions added as 5 μL additions to Falcon U bottom plates. […] A routine screening assay will consist of 32 compounds, which equals 4 assay plates. • 3. Assay plate maps are set up according to the following pattern
• 4. […] Finally 20 μL […] (0.02 μCi/μL)/10 μM cold ATP are added (equals approximately 2×10^6 CPM per well). • 6. The Falcon U-Bottom assay plate containing the above 50 μL reaction volume is vortexed and then incubated at room temperature for 2 hours. • 7. At the end of 2 hours, the reaction is stopped by the addition of 65 μL of ice cold 2 mM cold ATP (made up in assay buffer) to the assay plates using a Beckman Multimek • 8. At the same time 25 μL 100% ice cold TCA made up in distilled H2O is added to a matching number of Millipore MAPH filter plates. • 9. Using a handheld 8-channel pipettor, 100 μL of the reaction mixture is transferred from the Falcon U-Bottom Plate to the Millipore MAPH filter plates presoaked with TCA. • 10. The Millipore MAPH filter plates are mixed gently and allowed to sit at room temperature for at least 30 minutes to precipitate the proteins. • 11. After 30 minutes the filter plates are placed on a Millipore vacuum manifold and filtered at no more than 8 mm Hg as the MAPH filters tend to “air lock” at higher vacuum settings. • 12. The filter plates are sequentially washed and filtered with 2×150 μL 20% TCA, 2×150 μL 10% TCA and 2×150 μL 5% TCA (total of 6 washes per plate/900 μL per well). • 13. Plates are allowed to dry overnight at room temperature. The next day 40 μL Packard Microscint-20 Scintillation Fluid is added per well using a Titertek Multidrop dispenser; the plates are sealed and counted for 2 minutes/well in a Packard Topcount NXT Scintillation Counter (CPM values/well are captured). Calculation: • 1. Counts Per Minute (CPM) data is captured and imported into a proprietary data calculation and archiving database (Activity Base by IDBS version 5.0). • 2. Column 1 for each plate reflects total phosphorylation activity of the enzyme in the absence of any inhibiting compound and thus represents 100%. Column 12 reflects any nonspecific phosphorylation/retained radioactivity activity in the absence of inhibiting compound and enzyme.

Row | Compound | Cell Assay ECΔτ+1h [1] | IC50 [2] | melting point | IC50 ([2]; phosphorylation of casein, 10 μM cold ATP, 2 hours room temperature, * denotes average of 2 or more determinations, read-out: Casein Kinase Iε 33P-ATP Filter Plate Assay IC50)
1 | NC(=O)c1[nH]c2cccnc2c1Sc1ccccc1 [Ia-1, 3-Phenylsulfanyl-1H-pyrrolo[3,2-b]pyridine-2-carboxylic acid amide] | 0.27 µM | 36 nM | 251 °C | –
2 | NC(=O)c1[nH]c2cccnc2c1Sc1cccc(F)c1 [Ia-2, 3-(3-Fluorophenylsulfanyl)-1H-pyrrolo[3,2-b]pyridine-2-carboxylic acid amide] | 0.51 µM | 74 nM | 235 to 237 °C | –
3 | NC(=O)c1[nH]c2cccnc2c1Sc1cccc(Cl)c1 [Ia-3, 3-(3-Chlorophenylsulfanyl)-1H-pyrrolo[3,2-b]pyridine-2-carboxylic acid amide] | 0.31 µM | 26 nM | 246.5 to 248 °C | –
4 | NC(=O)c1[nH]c2cccnc2c1Sc1cccc(Br)c1 [Ia-4, 3-(3-Bromophenylsulfanyl)-1H-pyrrolo[3,2-b]pyridine-2-carboxylic acid amide] | 0.12 µM | 25 nM | – | –
5 | NC(=O)c1[nH]c2cccnc2c1Sc1ccccc1Cl [Ia-5, 3-(2-Chlorophenylsulfanyl)-1H-pyrrolo[3,2-b]pyridine-2-carboxylic acid amide] | 1.13 µM | 6530 nM | – | –
6 | NC(=O)c1[nH]c2cccnc2c1Sc1ccc(Cl)cc1 [Ia-6, 3-(4-Chlorophenylsulfanyl)-1H-pyrrolo[3,2-b]pyridine-2-carboxylic acid amide] | 13.8 µM | 491 nM | 266 °C | –
7 | NC(=O)c1[nH]c2cccnc2c1Sc1ccc(Cl)cc1Cl [Ia-7, 3-(2,4-Dichlorophenylsulfanyl)-1H-pyrrolo[3,2-b]pyridine-2-carboxylic acid amide] | – | > 10000 nM | 266 °C | –
8 | NC(=O)c1[nH]c2cccnc2c1Sc1ccccc1F [Ia-8, 3-(2-Fluorophenylsulfanyl)-1H-pyrrolo[3,2-b]pyridine-2-carboxylic acid amide] | 0.75 µM | 531 nM | – | –
9 | NC(=O)c1[nH]c2cccnc2c1Sc1ccccc1C(F)(F)F [Ia-10, 3-(2-Trifluormethylphenylsulfanyl)-1H-pyrrolo[3,2-b]pyridine-2-carboxylic acid amide] | 2.94 µM | – | – | 2890 nM
10 | NC(=O)c1[nH]c2cccnc2c1Sc1ccccc1N [Ia-12, 3-(2-Aminophenylsulfanyl)-1H-pyrrolo[3,2-b]pyridine-2-carboxylic acid amide] | 0.44 µM | 36 nM | – | –
11 | COc1cccc(Sc2c(C(N)=O)[nH]c3cccnc23)c1 [Ia-15, 3-(3-Methoxy-phenylsulfanyl)-1H-pyrrolo[3,2-b]pyridine-2-carboxylic acid amide] | 1.1 µM | 109 nM | – | –
12 | NC(=O)c1[nH]c2cccnc2c1Sc1cccc([N+](=O)[O-])c1 [Ia-18, 3-(3-Nitro-phenylsulfanyl)-1H-pyrrolo[3,2-b]pyridine-2-carboxylic acid amide] | >10 µM | 186 nM | – | –
13 | Cc1ccc(Sc2c(C(N)=O)[nH]c3cccnc23)cc1 [Ia-20, 3-p-Tolylsulfanyl-1H-pyrrolo[3,2-b]pyridine-2-carboxylic acid amide] | >10 µM | 261 nM | – | –
14 | Cc1cccc(Sc2c(C(N)=O)[nH]c3cccnc23)c1 [Ia-22, 3-m-Tolylsulfanyl-1H-pyrrolo[3,2-b]pyridine-2-carboxylic acid amide] | >10 µM | 73 nM | – | –
15 | NC(=O)c1[nH]c2cccnc2c1Sc1cccc2cccnc12 [Ia-25, 3-(Quinolin-8-ylsulfanyl)-1H-pyrrolo[3,2-b]pyridine-2-carboxylic acid amide] | 2.26 µM | 1550 nM | – | –
